Assay results from ChEMBL document CHEMBL3813599, “Identification of small-molecule compounds targeting the dishevelled PDZ domain by virtual screening and binding studies” (Bioorg Med Chem, 2016).
Activity calls are given as the source filed them. The calls are words filed in the database; no cut-off is given here.

Experiments:
[1] = biological target: T1, Segment polarity protein dishevelled homolog DVL-1 (Homo sapiens, UniProt O14640); test: Binding affinity to His-tagged Dvl-1 PDZ domain (247 to 337 residues) (unknown origin) expressed in Escherichia coli BL21 (DE3) assessed as dissociation rate by SPR analysis
T1 sequence (O14640 whole entry): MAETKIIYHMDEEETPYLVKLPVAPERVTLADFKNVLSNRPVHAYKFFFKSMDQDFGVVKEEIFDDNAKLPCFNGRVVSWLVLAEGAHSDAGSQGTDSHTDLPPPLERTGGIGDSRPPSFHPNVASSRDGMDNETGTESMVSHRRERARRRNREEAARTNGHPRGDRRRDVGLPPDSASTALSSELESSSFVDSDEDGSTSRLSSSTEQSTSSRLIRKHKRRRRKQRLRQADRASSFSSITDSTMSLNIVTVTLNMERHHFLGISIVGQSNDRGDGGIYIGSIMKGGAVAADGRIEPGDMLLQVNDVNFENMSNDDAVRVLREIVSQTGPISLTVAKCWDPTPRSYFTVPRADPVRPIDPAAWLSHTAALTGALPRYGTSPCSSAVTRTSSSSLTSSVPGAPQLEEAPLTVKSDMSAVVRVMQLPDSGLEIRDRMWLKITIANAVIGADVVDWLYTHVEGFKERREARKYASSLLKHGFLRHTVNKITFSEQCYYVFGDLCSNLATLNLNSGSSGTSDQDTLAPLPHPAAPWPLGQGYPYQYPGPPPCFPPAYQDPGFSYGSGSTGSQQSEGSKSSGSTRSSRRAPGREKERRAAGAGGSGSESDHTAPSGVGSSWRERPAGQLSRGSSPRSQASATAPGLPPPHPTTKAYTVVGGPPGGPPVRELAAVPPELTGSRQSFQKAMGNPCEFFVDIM

[2] = biological target: T2, Segment polarity protein dishevelled homolog DVL-1 (Homo sapiens) (UniProt O14640)
T2 sequence (whole entry): T1 sequence (O14640 whole entry)
Description: Binding affinity to His-tagged Dvl-1 PDZ domain (247 to 337 residues) (unknown origin) expressed in Escherichia coli BL21 (DE3) assessed as association rate by SPR analysis

[3] = biological target: T1, Segment polarity protein dishevelled homolog DVL-1; test: Binding affinity to His-tagged Dvl-1 PDZ domain (247 to 337 residues) (unknown origin) expressed in Escherichia coli BL21 (DE3) by SPR analysis
[4] = biological target: T2, Segment polarity protein dishevelled homolog DVL-1 (Homo sapiens); test: Binding affinity to His-tagged Dvl-1 PDZ domain (247 to 337 residues) (unknown origin) expressed in Escherichia coli BL21 (DE3) assessed as chemical shift perturbations at 1:0 to 1:20 protein-compound ratio by 1H-15N-HSQC NMR analysis
[5] = biological target: T3, Segment polarity protein dishevelled homolog DVL-1 (Mus musculus, UniProt P51141); test: Binding affinity to TMR-linked 15N-labeled mouse Dvl-1 domain ( 247 to 341 residues) by fluorescence spectroscopy
T3 sequence (P51141 whole entry): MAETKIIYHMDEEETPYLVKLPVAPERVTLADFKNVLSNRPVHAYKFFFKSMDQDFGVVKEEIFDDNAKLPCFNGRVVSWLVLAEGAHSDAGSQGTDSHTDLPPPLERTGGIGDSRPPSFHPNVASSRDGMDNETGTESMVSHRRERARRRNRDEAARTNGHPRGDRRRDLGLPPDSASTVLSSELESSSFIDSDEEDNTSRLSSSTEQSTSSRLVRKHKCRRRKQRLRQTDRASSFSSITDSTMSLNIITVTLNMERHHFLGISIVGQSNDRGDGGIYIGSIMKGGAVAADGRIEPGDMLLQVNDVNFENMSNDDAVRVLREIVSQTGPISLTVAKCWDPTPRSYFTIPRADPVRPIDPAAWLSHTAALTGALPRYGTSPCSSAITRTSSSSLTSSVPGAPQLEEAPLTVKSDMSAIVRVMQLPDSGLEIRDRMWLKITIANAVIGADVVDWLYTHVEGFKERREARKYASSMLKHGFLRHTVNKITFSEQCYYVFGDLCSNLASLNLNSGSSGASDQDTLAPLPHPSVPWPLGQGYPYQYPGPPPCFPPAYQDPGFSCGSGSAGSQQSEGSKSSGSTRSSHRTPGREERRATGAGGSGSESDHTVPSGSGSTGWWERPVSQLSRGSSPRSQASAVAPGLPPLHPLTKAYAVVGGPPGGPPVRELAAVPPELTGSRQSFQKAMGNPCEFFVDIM

Compound | Dissociation rate constant (koff) [1] | Ka [2] | Kd [3] [µM] | Activity [4] | Kd [5] [µM]
O=C(O)C1CCN(C(=O)c2cc(-c3ccc(Cl)s3)nc3ccccc23)CC1 | 1.7 ×10¹ /s | 5.47 ×10⁴ /M/s | 311 | – | –
COC(=O)CN1C(=O)S/C(=C/c2ccc(-c3cccc(C(=O)O)c3C)o2)C1=O | – | 4.68 ×10⁶ /M/s | 251 | – | –
COC(=O)COc1ccc(/C=C2\Sc3ccccc3C2=O)cc1 | 2.51 s⁻¹ | 3.2 ×10³ /M/s | 783 | – | –
CCCN1C(=O)/C(=C/c2ccc(OCC(=O)O)c(Cl)c2)NC1=S | 3.81 ×10⁻¹ /s | 2.5 ×10³ /M/s | 152 | – | –
COc1cc(/C=C2\Sc3ccccc3C2=O)ccc1OCC(=O)O | 6.22 ×10⁻¹ /s | 2.32 ×10³ /M/s | 268 | Active | –
O=C(O)Cc1coc2cc(OS(=O)(=O)c3ccc(Cl)cc3F)ccc12 | 1.45 s⁻¹ | 1.04 ×10⁴ /M/s | 139 | – | –
CC(C)[C@H](OC(=O)[C@H](C)NC(=O)[C@@H](OC(=O)[C@H](C)NC(=O)OC(C)(C)C)C(C)C)C(=O)O | – | – | – | – | 237
